Source: patent US5880095A, “Cholesteryl ester transfer protein inhibitor peptides and prophylactic and therapeutic anti-arteriosclerosis agents” (LG Chemical Ltd., priority 1994, dated 1999)
Where two headings read alike, the source gives them in different places. No end group written: not given here.

Tests used:
[1] = target: T1, pure CETP separated from human blood plasma (Homo sapiens, UniProt P11597); assay: Determination of CETP inhibitory activity (CE transfer from [3H]-HDL to LDL), pure CETP as CETP source; format: biochemical; settings: for inhibition at 7 µM: final conc. 7 μM; for inhibition at 9 µM: final conc. 9 μM
T1 construct: Pure CETP was separated from human blood plasma in accordance with the method of Hesler et al; from tissue; host or cells: human blood plasma
T1 sequence (P11597 18-493): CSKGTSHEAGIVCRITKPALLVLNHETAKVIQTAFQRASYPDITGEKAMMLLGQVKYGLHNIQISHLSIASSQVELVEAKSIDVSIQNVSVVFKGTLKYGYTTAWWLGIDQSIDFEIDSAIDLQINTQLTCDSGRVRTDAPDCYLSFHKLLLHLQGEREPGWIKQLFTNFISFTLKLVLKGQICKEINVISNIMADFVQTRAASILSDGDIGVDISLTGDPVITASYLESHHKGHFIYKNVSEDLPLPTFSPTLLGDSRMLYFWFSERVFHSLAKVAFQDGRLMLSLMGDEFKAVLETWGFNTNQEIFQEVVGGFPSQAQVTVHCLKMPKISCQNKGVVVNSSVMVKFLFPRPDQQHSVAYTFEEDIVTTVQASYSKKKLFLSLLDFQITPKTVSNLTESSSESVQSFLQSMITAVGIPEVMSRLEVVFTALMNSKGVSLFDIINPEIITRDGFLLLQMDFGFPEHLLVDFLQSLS
Procedure: (§1) LDL and [^3 H]-cholesteryl oleate-labelled HDL were synthesized in accordance with the method of Morton et al.(see, J. Biol. Chem., 256, 11992-11995(1981)) and then separated using an ultracentrifuge(Beckman XL 70). LDL and [^3 H]-HDL, thus prepared, were used as a CE-receptor and a CE-donor, respectively.
(§2) Pure CETP was separated from human blood plasma in accordance with the method of Hesler et al.(see, J. Biol. Chem., 262, 2275-2282(1987)) and used as a CETP source.
(§3) 0.3 ml of LDL, 0.05 ml of [^3 H]-HDL and 0.05 ml of the CETP source, which were prepared above, and 0.05 ml of a CETP inhibitor were added into a 1.5 ml tube and reacted at 37° C. for 3 hours.
(§4) When the reaction was finished, LDL was precipitated in accordance with the method of Morton et al.(see, Biochim. Biophys. Acta, 663, 350-355(1981)). The amount of the isotope transferred to LDL was determined with a liquid scintillation counter(Packard Tricarb 1600 TR) using a part of the supernatant, and the activity of CETP was calculated therefrom.
(§5) The inhibitory activity of the CETP inhibitor was calculated from the CETP activities of the experimental group, in which the CETP inhibitor was added, and that of control group, in which no CETP inhibitor was added, as follows: [formula]

[2] = target: T2, CETP (human blood plasma as CETP source) (Homo sapiens, UniProt P11597); assay: Determination of CETP inhibitory activity, human blood plasma itself as CETP source; format: biochemical
T2 construct: human blood plasma itself was used as the CETP source; from tissue; host or cells: human blood plasma (used as such)
T2 sequence (P11597 18-493): T1 sequence (P11597 18-493)
Procedure: as §1, §3, §4, §5
Further, the same procedures as in the Reference Example, except that human blood plasma itself was used as the CETP source, were repeated to determine CETP inhibitory activity of pure 3 kDa peptide.
CETP inhibitory activities of peptides P28, P10, P18, P24, P20 and P14 were determined in accordance with the method of Reference Example 1 using pure CETP or human blood plasma as a CETP source. To exclude possible nonspecific inhibition, a 2 kDa soluble peptide having an optional amino acid sequence was synthesized, and CETP inhibitory activity thereof was determined in a similar manner(control group).

[3] = tested on: Human fibroblast cell line(A431, ATCC CRL 1555); assay: Toxicity test on cultured cells; format: cell-based; settings: 10% (wt/vol) peptide, 72 hours, DMEM with 10% FBS, compared with control without peptide
Procedure: Human fibroblast cell line(A431, ATCC CRL 1555) was cultured on DMEM medium containing 10% fetal bovine serum(FBS), with the addition of 10% (wt/vol) Peptide P28, P18, P10, P24, P20 or P14, for 72 hours.

CETP = target: T3, CETP (Homo sapiens, UniProt P11597); assay: CETP inhibitory activity of Peptide P28 according to the substrate (CE-receptor VLDL, LDL, HDL or LDLR); format: biochemical; settings: final concentration 2 μM
T3 construct: Pure CETP was separated from human blood plasma in accordance with the method of Hesler et al; from tissue; host or cells: human blood plasma
T3 sequence (P11597 18-493): T1 sequence (P11597 18-493)
Procedure: as §1, §2, §3, §4, §5
In order to identify the inhibitory mechanism of Peptide P28 in blood, CETP inhibitory activity of Peptide P28 was determined in accordance with the method of Reference Example 1, using VLDL, LDL, HDL or re-synthesized LDL(LDLR) as a CE-receptor. LDLR was synthesized from LDL obtained in Reference Example 1 by the method of Morton et al.(see, J. Biol. Chem., 256, 11992-11995(1981)). The LDL was delipidated with chloroform and subjected to a gel chromatography to obtain ApoB100 protein. Phosphatidylcholine and cholesteryl oleate was thoroughly mixed, dried using nitrogen gas, and ApoB100 protein obtained above was added thereto. The mixture was reacted with stirring, dialyzed against tris buffer, and subjected to a gel chromatography to obtain LDLR.

[4] = alanine variants of P10, CETP source not given
[5] = final conc. of peptide 2 μM, CETP source pure CETP, synthesized peptides
[6] = final conc. of peptide 2 μM, CETP source human plasma, P28' and P13 produced in E. coli, read-out: Inhibitory Activity
[7] = conc. of inhibitor 2 μM, CETP source human plasma, peptides expressed in E. coli, read-out: Inhibitory Activity (Mean ± SD)

## ADTSPEDKMQ [Variant A]
[1]; [4]
  inhibition at 7 µM: -12%

## EATSPEDKMQ [Variant B]
[1]; [4]
  inhibition at 7 µM: -15%

## EDASPEDKMQ [Variant C]
[1]; final conc. 8 μM, alanine variants of P10, CETP source not given
  inhibition at 8 µM: -6%

## EDTAPEDKMQ [Variant D]
[1]; [4]
  inhibition at 7 µM: -12%

## EDTSAEDKMQ [Variant E]
[1]; [4]
  inhibition at 9 µM: -6%

## EDTSLLDKMQDYVKQATR [Peptide P18]
[1]; [5]
  Inhibitory Activity (Mean ± S.D.): 90 ± 3.5%
[2]; final conc. of peptide 2 μM, CETP source human plasma, synthesized peptides
  Inhibitory Activity (Mean ± S.D.): 40 ± 5.5%
[3]
  change in growth condition and morphology of cultured cells: no change

## EDTSPADKMQ [Variant F]
[1]; final conc. 6 μM, alanine variants of P10, CETP source not given
  inhibition at 6 µM: 29%

## EDTSPEAKMQ [Variant G]
[1]; final conc. 2 μM, alanine variants of P10, CETP source not given, read-out: CETP inhibitory activity
  inhibition at 2 µM: -3%

## EDTSPEDAMQ [Variant H]
[1]; final conc. 5 μM, alanine variants of P10, CETP source not given
  inhibition at 5 µM: 5%

## EDTSPEDKAQ [Variant I]
[1]; [4]
  inhibition at 9 µM: 69%

## EDTSPEDKMA [Variant J]
[1]; [4]
  inhibition at 7 µM: 41%

## EDTSPEDKMQ [Peptide P10]
[1]; final conc. of peptide 2 μM, CETP source pure CETP, synthesized peptides, read-out: Inhibitory Activity (Mean ± S.D.)
  inhibition at 2 µM: 100 ± 2%
[2]; [6]
  inhibition at 2 µM: 45 ± 2.3%
[2]; final conc. of peptide 2 μM, CETP source human plasma, synthesized peptides, read-out: Inhibitory Activity (Mean ± S.D.)
  inhibition at 2 µM: 50 ± 4.5%
[3]
  change in growth condition and morphology of cultured cells: no change

## EDTSPEDKMQDYVK [Peptide P14]
[1]; [5]
  Inhibitory Activity (Mean ± S.D.): 50 ± 3.5%
[2]; [7]
  inhibition at 2 µM: 15 ± 1.5%
[3]
  change in growth condition and morphology of cultured cells: no change

## EDTSPEDKMQDYVKQATRTA [Peptide P20]
[1]; [5]
  Inhibitory Activity (Mean ± S.D.): 90 ± 1.5%
[2]; [7]
  inhibition at 2 µM: 45 ± 2.2%
[3]
  change in growth condition and morphology of cultured cells: no change

## EDTSPEDKMQDYVKQATRTAQDAL [Peptide P24]
[1]; [5]
  Inhibitory Activity (Mean ± S.D.): 100 ± 2.5%
[2]; [7]
  inhibition at 2 µM: 50 ± 0.8%
[3]
  change in growth condition and morphology of cultured cells: no change

## EDTSPEDKMQDYVKQATRTAQDALTSVK [Peptide P28]
[1]; 1 nM, pure CETP separated from human blood plasma, read-out: CETP inhibitory activity (FIG. 4, curve A)
  inhibition at 0.001 µM: ~100%
[2]; 1 nM, human blood plasma itself as CETP source, read-out: CETP inhibitory activity (FIG. 4, curve B)
  inhibition at 0.001 µM: ~50%
CETP; CE-receptor LDL, read-out: inhibition of the transfer of CE from HDL to LDL
  inhibition at 2 µM: 50%
CETP; CE-receptor VLDL, read-out: inhibition of the transfer of CE from HDL to VLDL
  inhibition at 2 µM: ~10%
CETP; CE-receptor re-synthesized LDL (LDLR), read-out: inhibition of the transfer of CE from HDL to LDLR
  inhibition at 2 µM: 55%

## SEAEDASLLSFMQ [Peptide P13]
[2]; [6]
  inhibition at 2 µM: 34 ± 2.9%
